Results as given in paper PMC5465209 (Scientific Reports, 2017).

Key:
[1] = tested on: GFP-NFAT-1 in HEK293 cells; assay: Inhibition of GFP-NFAT-1 nuclear translocation; type: cell-based; conditions: 1 μM FK506 for 2 h, then 500 nM ionomycin 15 min; transfected HEK 293 cells; five independent experiments
Method: HEK293 cells (ATCC) were plated onto glass cover slips in 35-mm culture dishes. GFP-NFAT-1 plasmid[6] was transfected with Lipofectamine 2000 (ThermoFisher Scientific K.K., Yokohama, Japan). […] The nuclear fluorescence intensity was quantified using a Fluoview device (Olympus, Tokyo, Japan) and measured with AquaCosmos software (Hamamatsu Photonics). The fluorescent intensity of 10 cells was counted; five sets of experiments were conducted. Background fluorescent intensity was subtracted from all experiments.

[2] = tested on: IL-2 protein in Jurkat cells; assay: Inhibition of the production of IL-2 (ELISA of supernatant); type: cell-based, human; conditions: 100 nM FK506, then PMA and ionomycin 12 h
Method: Jurkat cells (1 × 10^5) were treated with medium containing peptides or FK506, then incubated with the same amount of medium containing 200 nM PMA (Sigma-Aldrich) and 4 μM ionomycin for an additional 12 h. IL-2 protein was detected in the supernatant of cells using an ELISA kit according to the manufacturer’s instructions (eBioscience, San Diego, CA, USA).

βTC6 cells = assay: Insulin secretion in βTC6 cells (mouse insulin ELISA); type: cell-based; conditions: FK506 0.01, 0.1 and 1 μM for 97 h, p < 0.05 for 0.01 μM, p < 0.01 for 0.1 and 1 μM, dose-dependent
Method: (§1) After 48, 96, or 144 hours, fresh medium was added; the samples taken to investigate the release of insulin were taken 1 hour later and assayed with a mouse insulin ELISA kit (Shibayagi, Shibukawa, Gunma, Japan).

[3] = tested on: isolated islets from BALB/c mice; assay: Insulin secretion in isolated islets (mouse insulin ELISA); type: cell-based; conditions: FK506 0.01, 0.1 and 1 μM for 97 h, p < 0.05 for 0.01 μM, p < 0.01 for 0.1 and 1 μM, dose-dependent
Method: as §1

secretion of insulin = conditions: cited from earlier work
Source text: An important mechanism whereby calcineurin promotes the activation of T cells and the induction of cytokine-related genes is largely attributed to a family of transcriptional regulators that are referred to as NFAT. The immunosuppressants cyclosporine A and FK506, which are used clinically to prevent transplant rejection, inhibit the activity of calcineurin phosphatase on all its protein substrates, including NFAT[1], [2].

Insulin secretion (βTC6 cells): significantly inhibited
Insulin secretion [3]: significantly inhibited
Compound: C=CC[C@@H]1/C=C(\C)C[C@H](C)C[C@H](OC)[C@H]2O[C@@](O)(C(=O)C(=O)N3CCCC[C@H]3C(=O)O[C@H](/C(C)=C/[C@@H]3CC[C@@H](O)[C@H](OC)C3)[C@H](C)[C@@H](O)CC1=O)[C@H](C)C[C@@H]2OC [FK506]
Ionomycin-induced GFP-NFAT-1 nuclear translocation [1]: strong inhibition
Production of IL-2 [2]: completely inhibited
Secretion of insulin (secretion of insulin): dose-dependent decrease
